Source: patent US20240381872A1, “SUBSTITUTED 2,3-DIHYDRO[1,3]THIAZOLO[4,5-B]PYRIDINES, SALTS THEREOF AND THEIR USE AS HERBICIDALLY ACTIVE SUBSTANCES” (BAYER AKTIENGESELLSCHAFT, priority 2021, published 2024)

What was measured:
Type in all cases: in vivo
Viola tricolor (VIOTR) = assay: Herbicidal pre-emergence action, section C (Table C9); conditions: visual grading after ca. 3 weeks; for pest or weed control at 80 g/ha / pest or weed control at 320 g/ha: Viola tricolor, pre-emergence, 504 h, read-out: pre-emergence activity against VIOTR in %
Description: (§1) Seeds of mono- and dicotyledonous weed plants and crop plants were sown, in plastic or organic planting pots, in sandy loam and covered with soil. The compounds according to the invention, formulated in the form of wettable powders (WP) or as emulsifiable concentrates (EC), were applied to the surface of the covering soil as aqueous suspension or emulsion, with the addition of 0.5% of an additive, at an application rate of 600 l of water/ha (converted). Following treatment, the pots were placed in a greenhouse and kept under optimum growth conditions for the test plants. The visual grading of the damage to the test plants was carried out after ca. 3 weeks in comparison to untreated controls (herbicidal effect in percent (%): 100% effect=plants have died off, 0% effect=as control plants).

Zea mays (ZEAMX) = assay: Pre-emergence effects on crop plants, section D (Table D1); conditions: visual grading after ca. 3 weeks
Summary of the method: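 Read-out: visual percent injury versus untreated controls at ca. 3 weeks (0% as control, 100% dead). Treatment: aqueous WP/EC suspension or emulsion with 0.5% additive, 600 l/ha, on soil covering seeds in sandy loam, at 320 g/ha or below, under optimum greenhouse conditions.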

Brassica napus (BRSNW) = assay: Post-emergence effects on crop plants, section F (Table F5); conditions: for post-emergence activity against BRSNW in %: crop plant damage
Summary of the method: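 Crops grown in sandy loam in the greenhouse were sprayed post-emergence at the single-leaf stage, 2-3 weeks after sowing. Compounds were formulated as WP or EC with 0.5% additive and applied in 600 l water/ha at 320 g/ha or below. Damage was scored visually about 3 weeks later as % effect versus untreated controls (100% = dead).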

Kochia scoparia (KCHSC) [1] = assay: Herbicidal post-emergence action, section B (Table B4); conditions: application rate 320 g/ha, visual rating about 3 weeks after treatment vs untreated controls; for pest or weed control at 320 g/ha: Bassia scoparia, post-emergence, 504 h, read-out: post-emergence activity against KCHSC in %
Summary of the method: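 Visual percent control about 3 weeks post-spray, relative to untreated plants. Application was to foliage at the one-leaf stage (2 to 3 weeks after sowing in sandy loam), using WP or EC formulations in water with 0.5% additive at 600 liters per hectare.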

[2] = test system: Matricaria inodora (MATIN); assay: Herbicidal post-emergence action, section B (Table B6); conditions: visual rating about 3 weeks after treatment vs untreated controls
Description: (§2) Seeds of mono- and dicotyledonous weed plants were placed in plastic pots in sandy loam soil (doubly sown with in each case one species of mono- or dicotyledonous weed plants per pot), covered with soil and cultivated in a greenhouse under controlled growth conditions. 2 to 3 weeks after sowing, the test plants were treated at the one-leaf stage. The compounds of the invention, formulated in the form of wettable powders (WP) or as emulsion concentrates (EC), were applied onto the green parts of the plants as aqueous suspension or emulsion with addition of 0.5% additive at a water application rate of 600 liters per hectare (converted). After the test plants had been kept in the greenhouse under optimum growth conditions for about 3 weeks, the activity of the preparations was rated visually in comparison to untreated controls. For example, 100% activity=the plants have died, 0% activity=like control plants.

[3] = test system: Polygonum convolvulus (POLCO); assay: Herbicidal post-emergence action, section E (Table E7); conditions: visual assessment ca. 3 weeks after spraying; for post-emergence activity against POLCO in %: application rate 320 g/ha
Summary of the method: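 Greenhouse-grown plants in sandy loam were sprayed post-emergence at the single-leaf stage, 2 to 3 weeks after sowing. Compounds were applied as WP or EC in water with 0.5% additive at 600 l water/ha. After ca. 3 weeks, damage was scored visually versus untreated controls (0% = as control, 100% = dead).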

Setaria viridis (SETVI) = assay: Herbicidal post-emergence action, section E (Table E8); conditions: application rate 320 g/ha, visual assessment ca. 3 weeks after spraying; for pest or weed control at 320 g/ha: Setaria viridis, 504 h, read-out: post-emergence activity against SETVI in %
Description: (§3) Seeds of mono- and dicotyledonous weed plants and crop plants were sown, in plastic or organic planting pots, in sandy loam, covered with soil and grown in a greenhouse under controlled growth conditions. 2 to 3 weeks after sowing, the test plants were sprayed in the single-leaf stage. The compounds according to the invention, formulated in form of wettable powders (WP) or as emulsifiable concentrates (EC), were sprayed onto the green plant parts as aqueous suspension or emulsion, with the addition of 0.5% of an additive, at an application rate of 600 l of water/ha (converted). The test plants were placed in the greenhouse for ca. 3 weeks under optimum growth conditions, and then the effect of the preparations was assessed visually in comparison with untreated controls (herbicidal effect in percent (%): 100% effect=plants have died off, 0% effect=as control plants).

[4] = test system: Abutilon theophrasti (ABUTH); assay: Herbicidal post-emergence action, section E (Table E1); conditions: assessed visually after ca. 3 weeks
Description: as §3

[5] = test system: Alopecurus myosuroides (ALOMY); assay: Herbicidal post-emergence action, section B (Table B2); conditions: application rate 1280 g/ha, rated visually about 3 weeks after treatment vs untreated controls, 100% = plants have died, 0% = like control plants
Description: as §2

Kochia scoparia (KCHSC) [6] = assay: Herbicidal pre-emergence action, section C (Table C13); conditions: application rate 320 g/ha; visual grading after ca. 3 weeks
Description: as §1

Kochia scoparia (KCHSC) [7] = assay: Herbicidal post-emergence action, section E (Table E11); conditions: visual assessment ca. 3 weeks after spraying
Description: as §3

Compound | pre-emergence activity against ZEAMX in % (crop plant damage) (Zea mays (ZEAMX); application rate 320 g/ha) [%] | pest or weed control at 320 g/ha (Kochia scoparia (KCHSC) [1]) [%] | pre-emergence activity against ZEAMX in % (crop plant damage) (Zea mays (ZEAMX); application rate 80 g/ha) | post-emergence activity against POLCO in % [3] [%] | post-emergence activity against KCHSC in % (Kochia scoparia (KCHSC) [1]) [%] | post-emergence activity against SETVI in % (Setaria viridis (SETVI)) [%] | post-emergence activity against ALOMY [5] [%] | post-emergence activity against MATIN in % ([2]; application rate 1280 g/ha) [%] | pre-emergence activity against VIOTR in % (Viola tricolor (VIOTR); application rate 320 g/ha) [%] | pre-emergence activity against KCHSC in % (Kochia scoparia (KCHSC) [6]) [%] | other results
CCc1ccccc1-c1nc2c(cc1C)[S+]([O-])CN2 (stereo not drawn) [Example I-047] | 20 | 90 | – | – | – | – | – | – | – | – | pest or weed control at 80 g/ha (Viola tricolor (VIOTR); application rate 80 g/ha): 90%; crop plant damage (phytotoxicity) in % at 320 g/ha (Brassica napus (BRSNW); Brassica napus, 504 h, application rate 320 g/ha, read-out: post-emergence activity against BRSNW in %): 20%
CCS(=O)(=O)N1CSc2cc(C)c(-c3ccccc3F)nc21 [Example I-060, 3-(ethylsulfonyl)-5-(2-fluorophenyl)-6-methyl-2,3-dihydro[1,3]thiazolo[4,5-b]pyridine] | – | 90 | 20% | – | – | – | – | – | – | – | pest or weed control at 1280 g/ha ([2]; Tripleurospermum inodorum, post-emergence, 504 h, application rate 1280 g/ha, read-out: post-emergence activity against MATIN in %): 90%; pest or weed control at 80 g/ha (Viola tricolor (VIOTR); application rate 80 g/ha): 90%; pest or weed control at 80 g/ha ([3]; Fallopia convolvulus, 504 h, application rate 80 g/ha, read-out: post-emergence activity against POLCO in %): 90%; pest or weed control at 320 g/ha (Setaria viridis (SETVI)): 90%; pest or weed control at 320 g/ha ([4]; Abutilon theophrasti, post-emergence, 504 h, application rate 320 g/ha, read-out: post-emergence activity against ABUTH in %): 80%; pest or weed control at 1280 g/ha ([5]; Alopecurus myosuroides, post-emergence, 504 h, read-out: post-emergence activity against ALOMY): 90%
CC(C)C(=O)N1C[S+]([O-])c2cc(Br)c(-c3ccccc3)nc21 (stereo not drawn) [Example I-067] | 20 | – | – | – | – | – | – | – | – | – | pest or weed control at 320 g/ha (Viola tricolor (VIOTR); application rate 320 g/ha): 100%; crop plant damage (phytotoxicity) in % at 80 g/ha (Brassica napus (BRSNW); Brassica napus, 504 h, application rate 80 g/ha, read-out: post-emergence activity against BRSNW in %): 0%; pest or weed control at 320 g/ha (Setaria viridis (SETVI)): 80%
CCS(=O)(=O)N1C[S+]([O-])c2cc(C)c(-c3ccccc3C)nc21 (stereo not drawn) [Example I-074] | – | 90 | 0% | – | – | – | – | – | – | – | pest or weed control at 320 g/ha (Viola tricolor (VIOTR); application rate 320 g/ha): 90%
Cc1cc2c(nc1-c1ccccc1F)N(C(=O)C1(C)CC(Cl)=NO1)CS2 (stereo not drawn) [Example I-083] | – | – | 10% | 90 | 90 | 80 | 90 | – | – | – | post-emergence activity against MATIN in % ([2]; application rate 320 g/ha): 90%; pre-emergence activity against VIOTR in % (Viola tricolor (VIOTR); application rate 80 g/ha): 90%; post-emergence activity against ABUTH in % ([4]; application rate 80 g/ha): 90%
Cc1cc2c(nc1-c1ccccc1)N(C(=O)C1(C)CC(Cl)=NO1)CS2 (stereo not drawn) [Example I-088] | 0 | – | – | 90 | 90 | – | – | 90 | 90 | 90 | post-emergence activity against KCHSC in % (Kochia scoparia (KCHSC) [7]; application rate 320 g/ha): 80%; post-emergence activity against BRSNW in % (Brassica napus (BRSNW); application rate 80 g/ha): 0%; post-emergence activity against ABUTH in % ([4]; application rate 320 g/ha): 90%
Cc1cc2c(nc1-c1ccccc1F)N(C(=O)C13CCCC1C(Cl)=NO3)CS2 (stereo not drawn) [Example I-104] | – | – | 0) % | 90 | 90 | 90 | 90 | 90 | 80 | 90 | post-emergence activity against KCHSC in % (Kochia scoparia (KCHSC) [7]; application rate 320 g/ha): 90%; post-emergence activity against ABUTH in % ([4]; application rate 80 g/ha): 80%
Cc1cc2c(nc1-c1ccccc1F)N(S(=O)(=O)Cc1ccc(F)cc1)CS2 [Example I-122] | 0 | – | – | 90 | 90 | 80 | 90 | 90 | 80 | 90 | post-emergence activity against KCHSC in % (Kochia scoparia (KCHSC) [7]; application rate 80 g/ha): 80%; post-emergence activity against BRSNW in % (Brassica napus (BRSNW); application rate 80 g/ha): 0%; post-emergence activity against ABUTH in % ([4]; application rate 320 g/ha): 80%
